Test results reported in article PMC7816196, “Antitubercular 2-Pyrazolylpyrimidinones: Structure–Activity Relationship and Mode-of-Action Studies” (Journal of Medicinal Chemistry, 2021).

What was measured:
Assay type in all cases: cell-based, Mycobacterium tuberculosis
MmpL3 G596R = test system: MmpL3 G596R
MmpL3 V681 = test system: MmpL3 V681
MmpL3 F255L = test system: MmpL3 F255L

| Structure (SMILES) | MmpL3 G596R MIC (MmpL3 G596R) [µM] | MmpL3 V681 MIC (MmpL3 V681) [µM] | MmpL3 F255L MIC (MmpL3 F255L) [µM] |
| --- | --- | --- | --- |
| CC(=O)Nc1cc(C)nn1-c1nc(-c2ccccc2)cc(=O)[nH]1 [Compound 15, N-(3-Methyl-1-(4-oxo-6-phenyl-1,4-dihydropyrimidin-2-yl)-1H-pyrazol-5-yl)acetamide] | >200 | >200 | >200 |
| Cc1cc(Nc2ccc(F)cc2)n(-c2nc(C(F)(F)F)cc(=O)[nH]2)n1 [Compound 40, 2-(5-((4-Fluorophenyl)amino)-3-methyl-1H-pyrazol-1-yl)-6-(trifluoromethyl)pyrimidin-4(3H)-one] | – | – | >200 |
